# Test results as given in patent US20130189203A1, “COSMETIC ADDITIVES CONTAINING ALKALI PHOSPHATES” (BK Giulini GmbH, priority 2012, published 2013).
# Assay: complex formation with iron ions in sun protection formulation, colour measurement (Minolta Chroma-Meter CR 300)
# Conditions: formulation + 0.01% iron (III) chloride hexahydrate + 0.09% additive, after 6 weeks
# Protocol: As a base formulation, the formulation of a sun protection agent with butyl methoxy dibenzoylmethane was used. This UVA filter forms an intensive red complex with traces of irons The complexing effect was studied using the following formulation:
# The aqueous phase of the formulation was prepared by dissolving Phase B in Phase A until a homogeneous phase resulted. This was brought to a temperature of ca. 75-80° C. Phase C was prepared by dissolving Cosmedia Gel CC in the rest of Phase C until a homogeneous phase resulted. This was heated to ca. 75-80° C., followed by addition of phase D, and then Phase E was stirred in. The mixture of phases C, D, and E was added to the aqueous phase, and this mixture was stirred 5 min at 750 rpm. Then the formulation was cooled to room temperature while stirring at 200 rpm, during which at ca. 60° C. the mixture was homogenised 1 min at 11000 rpm with the aid of an Ultra Turrax stirrer.
# The following additives were added to the described formulation:
# The respective amount of iron (III) chloride hexahydrate, Carephos N (linear alkali polyphosphate), disodium EDTA, Utanit AF (acid diphosphate, for comparison), and [sic] Phoskadent Pyro (alkali diphosphate, for comparison) was worked into the aqueous phase and was removed from the water content [sic].
# The evaluation was carried out by colour measurement. Using a Minolta Chroma-Meter CR 300, the colour status of the formulas was determined after 6 weeks. The measurements yielded values which allowed an objective comparison of the individual formulations. The measurements determined 3 values: L, a, and b. The L value describes lightness and darkness, with 0 representing perfect black and 100 perfect white. The a value describes the red-green value, and the b value describes the yellow-blue value. There are different prefix signs on the a and b values, in accordance with the present CIE Lab system, according to which no colour can be simultaneously reddish and greenish or simultaneously yellowish and bluish. Thus, −a represents green, +a represents red, −b represents blue, and +b represents yellow. […]
smiles,measurement,value
O=C([O-])CN(CCN(CC(=O)[O-])CC(=O)O)CC(=O)O.[Na+].[Na+] [Disodium EDTA],L value (difference to white standard),−26.44
same,a value (red-green; difference to white standard),+5.18
same,b value (yellow-blue; difference to white standard),+4.10
